In PMC5218480 (PLoS ONE, 2017):

Tested on: MV-4-11 cells
Experiment: Gene expression microarray analysis (Affymetrix PrimeView) and GSEA
Format: cell-based, human
Set-up: RFU PODN (11730768_x_at) / Fold change /veh PODN (11730768_x_at) / RFU LINC00158 (11744669_a_at) / Fold change /veh LINC00158 (11744669_a_at) / RFU DUSP10 (11751237_a_at) / Fold change /veh DUSP10 (11751237_a_at) / RFU ID3 (11757404_x_at) / Fold change /veh ID3 (11757404_x_at) / RFU PLEKHG5 (11737974_s_at) / Fold change /veh PLEKHG5 (11737974_s_at) / RFU LRRC4B (11730491_at) / Fold change /veh LRRC4B (11730491_at) / RFU GIMAP4 (11747438_a_at) / Fold change /veh GIMAP4 (11747438_a_at) / RFU KRT8 (11758183_x_at) / Fold change /veh KRT8 (11758183_x_at) / RFU CNN1 (11734310_a_at) / Fold change /veh CNN1 (11734310_a_at) / RFU VPS37D (11726825_at) / Fold change /veh VPS37D (11726825_at) / RFU C10orf10 (11716522_x_at) / Fold change /veh C10orf10 (11716522_x_at) / RFU KIR2DL2 /// KIR2DL4 /// KIR2DL5A /// KIR2DL5B /// KIR2DS1 /// KIR2DS2 /// KIR2DS3 /// KIR2DS4 /// KIR3DL3 /// KIR3DL3 /// KIR3DS1 (11738374_at) / Fold change /veh KIR2DL2 /// KIR2DL4 /// KIR2DL5A /// KIR2DL5B /// KIR2DS1 /// KIR2DS2 /// KIR2DS3 /// KIR2DS4 /// KIR3DL3 /// KIR3DL3 /// KIR3DS1 (11738374_at) / RFU C1QL1 (11718748_at) / Fold change /veh C1QL1 (11718748_at) / RFU TMPRSS4 (11747572_a_at) / Fold change /veh TMPRSS4 (11747572_a_at) / RFU HAMP (11756126_x_at) / Fold change /veh HAMP (11756126_x_at) / RFU RNFT2 (11725882_a_at) / Fold change /veh RNFT2 (11725882_a_at) / RFU NR4A2 (11747474_a_at) / Fold change /veh NR4A2 (11747474_a_at) / RFU ABCC12 (11746883_a_at) / Fold change /veh ABCC12 (11746883_a_at) / RFU TMEM136 (11760407_x_at) / Fold change /veh TMEM136 (11760407_x_at) / RFU CLDN22 /// WWC2 (11732394_at) / Fold change /veh CLDN22 /// WWC2 (11732394_at) / RFU HLA-DPB1 (11760878_x_at) / Fold change /veh HLA-DPB1 (11760878_x_at) / RFU SPINT1 (11716480_a_at) / Fold change /veh SPINT1 (11716480_a_at) / RFU GAP43 (11754022_s_at) / Fold change /veh GAP43 (11754022_s_at) / RFU A4GNT (11735810_at) / Fold change /veh A4GNT (11735810_at) / RFU PRB3 (11715151_x_at) / Fold change /veh PRB3 (11715151_x_at) / RFU TUBB4B (11761932_at) / Fold change /veh TUBB4B (11761932_at) / RFU CAPN14 (11732068_a_at) / Fold change /veh CAPN14 (11732068_a_at) / RFU TMCC2 (11721928_a_at) / Fold change /veh TMCC2 (11721928_a_at) / RFU IRGQ (11745062_a_at) / Fold change /veh IRGQ (11745062_a_at) / RFU FAM174B (11720279_a_at) / Fold change /veh FAM174B (11720279_a_at) / RFU TMPRSS4 (11748680_a_at) / Fold change /veh TMPRSS4 (11748680_a_at) / RFU FAM212B (11763350_a_at) / Fold change /veh FAM212B (11763350_a_at) / RFU PLEKHG5 (11743358_a_at) / Fold change /veh PLEKHG5 (11743358_a_at) / RFU ZSCAN30 (11745921_a_at) / Fold change /veh ZSCAN30 (11745921_a_at) / RFU CMKLR1 (11741424_a_at) / Fold change /veh CMKLR1 (11741424_a_at) / RFU LOC101060620 /// MAPK8IP1 (11723275_at) / Fold change /veh LOC101060620 /// MAPK8IP1 (11723275_at) / RFU SPTSSB (11747773_x_at) / Fold change /veh SPTSSB (11747773_x_at) / RFU PRSS12 (11739890_at) / Fold change /veh PRSS12 (11739890_at) / RFU BIN1 (11741810_x_at) / Fold change /veh BIN1 (11741810_x_at) / RFU WNT11 (11732464_a_at) / Fold change /veh WNT11 (11732464_a_at) / RFU C10orf10 (11716521_a_at) / Fold change /veh C10orf10 (11716521_a_at) / RFU C5orf56 (11738089_at) / Fold change /veh C5orf56 (11738089_at) / RFU CYB561 (11721691_x_at) / Fold change /veh CYB561 (11721691_x_at) / RFU ANKRD19P (11752326_a_at) / Fold change /veh ANKRD19P (11752326_a_at) / RFU OR2T12 /// OR2T33 /// OR2T8 (11738714_s_at) / Fold change /veh OR2T12 /// OR2T33 /// OR2T8 (11738714_s_at) / RFU VCAN (11748164_a_at) / Fold change /veh VCAN (11748164_a_at) / RFU JSRP1 (11732532_at) / Fold change /veh JSRP1 (11732532_at) / RFU KRTAP10-11 (11738290_x_at) / Fold change /veh KRTAP10-11 (11738290_x_at) / RFU MYO3A (11730013_a_at) / Fold change /veh MYO3A (11730013_a_at) / RFU EBF3 (11725865_a_at) / Fold change /veh EBF3 (11725865_a_at) / RFU CAMK2N1 (11719241_x_at) / Fold change /veh CAMK2N1 (11719241_x_at) / RFU C5orf56 (11738088_a_at) / Fold change /veh C5orf56 (11738088_a_at) / RFU OLFML3 (11715873_a_at) / Fold change /veh OLFML3 (11715873_a_at) / RFU LOC100653217 /// NTM (11731650_a_at) / Fold change /veh LOC100653217 /// NTM (11731650_a_at) / RFU MAPK11 (11762145_a_at) / Fold change /veh MAPK11 (11762145_a_at) / RFU FIZ1 (11724087_x_at) / Fold change /veh FIZ1 (11724087_x_at) / RFU OASL (11726364_x_at) / Fold change /veh OASL (11726364_x_at) / RFU SOX15 (11748057_x_at) / Fold change /veh SOX15 (11748057_x_at) / RFU CD79A (11719716_a_at) / Fold change /veh CD79A (11719716_a_at) / RFU HIST1H1D (11736915_at) / Fold change /veh HIST1H1D (11736915_at) / RFU CASKIN2 (11723855_a_at) / Fold change /veh CASKIN2 (11723855_a_at) / RFU LOC730098 (11760151_x_at) / Fold change /veh LOC730098 (11760151_x_at) / RFU OR4N2 (11742367_at) / Fold change /veh OR4N2 (11742367_at) / RFU PRRT2 (11749266_a_at) / Fold change /veh PRRT2 (11749266_a_at) / RFU SNX32 (11753110_a_at) / Fold change /veh SNX32 (11753110_a_at) / RFU CDHR5 (11726645_a_at) / Fold change /veh CDHR5 (11726645_a_at) / RFU RCAN1 (11760418_a_at) / Fold change /veh RCAN1 (11760418_a_at) / RFU FAM167A (11723789_a_at) / Fold change /veh FAM167A (11723789_a_at) / RFU FAM26E (11764081_at) / Fold change /veh FAM26E (11764081_at) / RFU ISYNA1 (11749810_s_at) / Fold change /veh ISYNA1 (11749810_s_at) / RFU ACY1 (11761880_at) / Fold change /veh ACY1 (11761880_at) / RFU 11764098_at / Fold change /veh 11764098_at / RFU SAMD14 (11745864_x_at) / Fold change /veh SAMD14 (11745864_x_at) / RFU NPB (11741838_a_at) / Fold change /veh NPB (11741838_a_at) / RFU TMPRSS6 (11731388_a_at) / Fold change /veh TMPRSS6 (11731388_a_at) / RFU KRTAP10-2 (11738614_at) / Fold change /veh KRTAP10-2 (11738614_at) / RFU ARHGAP8 /// PRR5-ARHGAP8 (11727945_x_at) / Fold change /veh ARHGAP8 /// PRR5-ARHGAP8 (11727945_x_at) / RFU KRTAP5-7 /// NADSYN1 (11734609_at) / Fold change /veh KRTAP5-7 /// NADSYN1 (11734609_at) / RFU RASL12 (11751679_a_at) / Fold change /veh RASL12 (11751679_a_at) / RFU CDKN2B (11736163_a_at) / Fold change /veh CDKN2B (11736163_a_at) / RFU PRF1 (11729649_at) / Fold change /veh PRF1 (11729649_at) / RFU, ZNF638 /// ZNF638-IT1 / Fold change vs veh, ZNF638 /// ZNF638-IT1 / RFU, PANK3 / Fold change vs veh, PANK3 / RFU, SH3YL1 / Fold change vs veh, SH3YL1 / RFU, ZEB2 / Fold change vs veh, ZEB2 / RFU, NRIP1 / Fold change vs veh, NRIP1 / RFU, PTTG1IP / Fold change vs veh, PTTG1IP / RFU, CAPN2 / Fold change vs veh, CAPN2 / RFU, MED14 / Fold change vs veh, MED14 / RFU, SNORA58 / Fold change vs veh, SNORA58 / RFU, C1orf63 / Fold change vs veh, C1orf63 / RFU, LRRFIP1 / Fold change vs veh, LRRFIP1 / RFU, NDUFAF7 / Fold change vs veh, NDUFAF7 / RFU, SLC12A2 / Fold change vs veh, SLC12A2 / RFU, IBTK / Fold change vs veh, IBTK / RFU, ESF1 / Fold change vs veh, ESF1 / Fold change vs veh, TMEM50B / RFU, TAOK1 / Fold change vs veh, TAOK1 / RFU, ACBD3 / Fold change vs veh, ACBD3 / RFU, TMA16 / Fold change vs veh, TMA16 / RFU, RWDD3 / Fold change vs veh, RWDD3 / RFU, BCAT1 / Fold change vs veh, BCAT1 / RFU, EDEM3 / Fold change vs veh, EDEM3 / RFU, TMEM33 / Fold change vs veh, TMEM33 / RFU, WDR75 / Fold change vs veh, WDR75 / RFU, AHCTF1 / Fold change vs veh, AHCTF1 / RFU, TFRC / Fold change vs veh, TFRC / RFU, ZDHHC17 / Fold change vs veh, ZDHHC17 / RFU, NOM1 / Fold change vs veh, NOM1 / RFU, ARL8B / Fold change vs veh, ARL8B / RFU, ZBTB11 / Fold change vs veh, ZBTB11 / RFU, TAMM41 / Fold change vs veh, TAMM41 / RFU, KIAA1704 /// LOC100996395 / Fold change vs veh, KIAA1704 /// LOC100996395 / RFU, ING1 / Fold change vs veh, ING1 / RFU, TRMT61B / Fold change vs veh, TRMT61B / RFU, FUBP3 / Fold change vs veh, FUBP3 / RFU, TP53 / Fold change vs veh, TP53 / RFU, TNKS2 / Fold change vs veh, TNKS2 / RFU, ZFP14 / Fold change vs veh, ZFP14 / RFU, ACTR2 / Fold change vs veh, ACTR2 / RFU, PPP3R1 / Fold change vs veh, PPP3R1 / RFU, PIK3R1 / Fold change vs veh, PIK3R1 / RFU, HNRNPA1 / Fold change vs veh, HNRNPA1 / RFU, RNF170 / Fold change vs veh, RNF170 / RFU, ZNF28 / Fold change vs veh, ZNF28 / RFU, RNGTT / Fold change vs veh, RNGTT / RFU, OGT / Fold change vs veh, OGT / RFU, BRD1 / Fold change vs veh, BRD1 / RFU, MARS / Fold change vs veh, MARS / RFU, ZNF655 / Fold change vs veh, ZNF655 / RFU, FAHD1 / Fold change vs veh, FAHD1 / RFU, BDP1 / Fold change vs veh, BDP1 / RFU, LRRCC1 / Fold change vs veh, LRRCC1 / RFU, ARID1A / Fold change vs veh, ARID1A / RFU, ZNF146 / Fold change vs veh, ZNF146 / RFU, ZNF330 / Fold change vs veh, ZNF330 / RFU, GPN3 / Fold change vs veh, GPN3 / RFU, C9orf123 / Fold change vs veh, C9orf123 / RFU, N4BP2L2 / Fold change vs veh, N4BP2L2 / RFU, ARFIP1 / Fold change vs veh, ARFIP1 / RFU, FAM179B / Fold change vs veh, FAM179B / RFU, BCL10 / Fold change vs veh, BCL10 / RFU, UHRF1BP1L / Fold change vs veh, UHRF1BP1L / RFU, BET1 / Fold change vs veh, BET1 / RFU, CNOT2 / Fold change vs veh, CNOT2 / RFU, ZNF268 / Fold change vs veh, ZNF268 / Fold change vs veh, ZNF507 / RFU, DGCR2 / Fold change vs veh, DGCR2 / RFU, WDSUB1 / Fold change vs veh, WDSUB1 / Fold change vs veh, HSP90B1 /// MIR3652 / RFU, ADSS / Fold change vs veh, ADSS / RFU, GK / Fold change vs veh, GK / RFU, ZNF148 / Fold change vs veh, ZNF148 / RFU, TAF9 / Fold change vs veh, TAF9 / RFU, SLC1A5 / Fold change vs veh, SLC1A5 / RFU, SLMO2 / Fold change vs veh, SLMO2 / RFU, ABCC4 / Fold change vs veh, ABCC4 / RFU, LOC101060439 /// RAP1B / Fold change vs veh, LOC101060439 /// RAP1B / RFU, RFX7 / Fold change vs veh, RFX7 / RFU, GTPBP10 / Fold change vs veh, GTPBP10 / RFU, CNEP1R1 / Fold change vs veh, CNEP1R1 / RFU, BIVM-ERCC5 /// ERCC5 / Fold change vs veh, BIVM-ERCC5 /// ERCC5 / RFU, ILF3 / Fold change vs veh, ILF3 / RFU 11762660_at / Fold change /veh 11762660_at / RFU VCAN (11757783_s_at) / Fold change /veh VCAN (11757783_s_at) / RFU DDX43 (11728927_at) / Fold change /veh DDX43 (11728927_at) / RFU KRT8 (11758188_x_at) / Fold change /veh KRT8 (11758188_x_at) / RFU NKD1 (11759106_at) / Fold change /veh NKD1 (11759106_at) / RFU SRD5A1 (11742802_a_at) / Fold change /veh SRD5A1 (11742802_a_at) / RFU TPSAB1 /// TPSB2 (11721975_s_at) / Fold change /veh TPSAB1 /// TPSB2 (11721975_s_at) / RFU GSTM3 (11746129_a_at) / Fold change /veh GSTM3 (11746129_a_at) / RFU IL23R (11737362_x_at) / Fold change /veh IL23R (11737362_x_at) / RFU TMEM51 (11727254_a_at) / Fold change /veh TMEM51 (11727254_a_at) / RFU PIWIL2 (11732686_x_at) / Fold change /veh PIWIL2 (11732686_x_at) / RFU ORM1 (11744905_x_at) / Fold change /veh ORM1 (11744905_x_at) / RFU CCDC152 (11743942_at) / Fold change /veh CCDC152 (11743942_at) / RFU ECM1 (11717891_a_at) / Fold change /veh ECM1 (11717891_a_at) / RFU IL23R (11748794_a_at) / Fold change /veh IL23R (11748794_a_at) / RFU TNFAIP8L3 (11732012_x_at) / Fold change /veh TNFAIP8L3 (11732012_x_at) / RFU MBOAT4 (11741988_at) / Fold change /veh MBOAT4 (11741988_at) / RFU 11764193_at / Fold change /veh 11764193_at / RFU TMEM53 (11763286_at) / Fold change /veh TMEM53 (11763286_at) / RFU MAGEB2 (11727129_at) / Fold change /veh MAGEB2 (11727129_at) / RFU TMEM200A (11744735_a_at) / Fold change /veh TMEM200A (11744735_a_at) / RFU CCDC152 (11751479_a_at) / Fold change /veh CCDC152 (11751479_a_at) / RFU FAM211A (11726209_a_at) / Fold change /veh FAM211A (11726209_a_at) / RFU RGS16 (11746705_a_at) / Fold change /veh RGS16 (11746705_a_at) / RFU VCAN (11755009_s_at) / Fold change /veh VCAN (11755009_s_at) / RFU RHOB (11743442_s_at) / Fold change /veh RHOB (11743442_s_at) / RFU RGS16 (11720943_a_at) / Fold change /veh RGS16 (11720943_a_at) / RFU RGS16 (11720944_at) / Fold change /veh RGS16 (11720944_at) / RFU, VPS4B / Fold change vs veh, VPS4B / RFU, CREB1 / Fold change vs veh, CREB1 / RFU, DNAJC13 / Fold change vs veh, DNAJC13 / RFU, GNAQ / Fold change vs veh, GNAQ / RFU, CDK5R1 / Fold change vs veh, CDK5R1 / RFU, ZRANB3 / Fold change vs veh, ZRANB3 / RFU, CUL4A / Fold change vs veh, CUL4A / RFU, CCNY / Fold change vs veh, CCNY / RFU, UFL1 / Fold change vs veh, UFL1 / RFU, COG3 / Fold change vs veh, COG3 / RFU, DIAPH2 / Fold change vs veh, DIAPH2 / RFU, SKA2 / Fold change vs veh, SKA2 / RFU, AFF3 / Fold change vs veh, AFF3 / RFU, LMF1 / Fold change vs veh, LMF1 / RFU, IPO11 / Fold change vs veh, IPO11 / RFU, DFFB / Fold change vs veh, DFFB / RFU, FOXP1 / Fold change vs veh, FOXP1 / RFU, CARD8 / Fold change vs veh, CARD8 / RFU, STRN3 / Fold change vs veh, STRN3 / RFU, ADK / Fold change vs veh, ADK / RFU, RASSF2 / Fold change vs veh, RASSF2 / RFU, WIPF1 / Fold change vs veh, WIPF1 / RFU, LARP1B / Fold change vs veh, LARP1B / RFU, RASA1 / Fold change vs veh, RASA1 / RFU, RB1 / Fold change vs veh, RB1 / RFU, PPFIA1 / Fold change vs veh, PPFIA1 / RFU, MAT2A / Fold change vs veh, MAT2A / RFU, CCT5 / Fold change vs veh, CCT5 / RFU, WDR92 / Fold change vs veh, WDR92 / RFU, CUX1 / Fold change vs veh, CUX1 / RFU, TTC7A / Fold change vs veh, TTC7A / RFU, TMEM135 / Fold change vs veh, TMEM135 / RFU, DEPTOR / Fold change vs veh, DEPTOR / RFU, CPM / Fold change vs veh, CPM / RFU, DNAJB6 / Fold change vs veh, DNAJB6 / RFU, CACNA2D3 / Fold change vs veh, CACNA2D3 / RFU, DTX4 / Fold change vs veh, DTX4 / RFU, TFCP2 / Fold change vs veh, TFCP2 / RFU, GMCL1 /// GMCL1P1 / Fold change vs veh, GMCL1 /// GMCL1P1 / RFU, AEBP2 / Fold change vs veh, AEBP2 / RFU, SNHG1 /// SNORD22 /// SNORD25 /// SNORD26 /// SNORD27 /// SNORD28 /// SNORD29 /// SNORD31 / Fold change vs veh, SNHG1 /// SNORD22 /// SNORD25 /// SNORD26 /// SNORD27 /// SNORD28 /// SNORD29 /// SNORD31 / Fold change (Aza/veh), C12orf56 (ProbeSet 11735607_a_at) / Fold change (ACY-1035/veh), C12orf56 (ProbeSet 11735607_a_at) / Fold change (Aza/veh), FGFR1OP (ProbeSet 11751329_s_at) / Fold change (ACY-1035/veh), FGFR1OP (ProbeSet 11751329_s_at) / Fold change (Aza/veh), VPS36 (ProbeSet 11739960_a_at) / Fold change (ACY-1035/veh), VPS36 (ProbeSet 11739960_a_at) / RFU SYPL1 (11715823_x_at) / Fold change /veh SYPL1 (11715823_x_at) / RFU IGFBP7 (11715501_s_at) / Fold change /veh IGFBP7 (11715501_s_at) / RFU REEP3 (11722064_at) / Fold change /veh REEP3 (11722064_at) / RFU IGLL1 (11728026_x_at) / Fold change /veh IGLL1 (11728026_x_at): dose or concentration left out as unconfirmed
Conditions: ProbeSet 11732433_s_at; LIST B

## Nc1ncn([C@@H]2O[C@H](CO)[C@@H](O)[C@H]2O)c(=O)n1 [azacitidine]
  RFU, GK: 260.90 RFU
